Measurements taken from patent EP2226073A1, “Topical pharmaceutical composition comprising an antiseptic and arginine for wound healing” (EURO-CELTIQUE S.A., priority 2009, dated 2010).

Tested on: Human ciliated epithelium cells
Method: Human ciliated epithelium cells were analyzed by an in vitro method which allows for determining ciliary activity or ciliary vibration. The corresponding cells were exposed and incubated with 100 µl test substance at a temperature of 37°C. After an incubation period of 5 min ciliary vibration was measured.
By using this in vitro method, a nutrient solution (Dulbeco) as a standard, a 0.2% chlorohexidine solution (a common antiseptic agent), conventional polyvidone iodine solutions (Betaisodona) of different concentrations (5.0%, 2.5%, and 1.25% PVP-iodine), and a liposomal solution containing 4.5% PVP-iodine were tested.

Question: For [H]/N=C(\N/C(=N/[H])NCCCCCCNC(=N)NC(=N)Nc1ccc(Cl)cc1)Nc1ccc(Cl)cc1 [chlorohexidine], which ciliary vibration is on record?
Answer: decrease of the measured ciliary vibration
